Test results: patent publication US20060079453A1, “Hla binding peptides and their uses” (priority 2002, published 2006)
Like-named read-outs stand apart in the source and are kept apart here. No end group written: not given here.

Assays:
Test in all cases: biochemical
Format in all cases: binding
HLA-DR DRB1*0101 (DR1) = HLA-DR DRB1*0101 (DR1) (Homo sapiens, UniProt P01903+P01911, A100R/D57E/F55L/F60I/F76Y/I96L/L162R/M171V/P40L/Q125E/R42F/V115G/Y59C)
HLA-DR DRB1*0401 (DR4) = HLA-DR DRB1*0401 (DR4) (Homo sapiens, UniProt P01903+P01911, A100K/A169T/F76Y/I96L/K127E/L162R/M171V/N62H/P40V/Q125Y/R42H/S133A/S149N/S66Y/V115G/V209L/W38E); settings: DRB1 *0401
HLA-DR DRB1*0701 (DR7) = HLA-DR DRB1*0701 (DR7) (Homo sapiens, UniProt P01903+P01911, A100R/A102G/A103Q/D57E/D86V/E43K/F76Y/K127E/L162R/M171V/P40G/Q125H/Q99D/R33Q/R42Y/R54Q/S133A/S66F/T210M/V115G/Y107V/Y59L/Y89S)
HLA-DR DRB1*0901 (DR9) = HLA-DR DRB1*0901 (DR9) (Homo sapiens, UniProt P01903+P01911, A100R/A103E/D57H/D86V/F55Y/F60I/F76Y/I96F/K127E/L162R/M171V/P40D/Q125H/Q99R/R33Q/R42F/S133A/S66N/T210M/V115G/W38K/Y107V/Y59G/Y89S); settings: DRB1 *0901
HLA-DR DRB1*1101 (DR11) = HLA-DR DRB1*1101 (DR11) (Homo sapiens, UniProt P01903+P01911, A100R/A169T/A87E/I96F/K41T/L162R/M171V/P40S/Q125H/Q178H/Q39Y/Q99D/R42S/S66Y/T262R/V115G/W38E)
Sequence of HLA-DR DRB1*1101 (DR11) (P01903 26-254 limits assumed, other chains not shown): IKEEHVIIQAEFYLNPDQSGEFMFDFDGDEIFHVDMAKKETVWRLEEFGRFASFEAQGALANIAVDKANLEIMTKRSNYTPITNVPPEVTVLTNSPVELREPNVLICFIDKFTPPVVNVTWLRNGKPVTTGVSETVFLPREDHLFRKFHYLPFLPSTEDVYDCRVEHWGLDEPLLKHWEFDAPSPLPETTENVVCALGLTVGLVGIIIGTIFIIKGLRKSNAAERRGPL

HLA-DR DRB3*0101 (DR52) = HLA-DR DRB3*0101 (DR52) (Homo sapiens, UniProt P01903+P79483)
HLA-DR DRB4*0101 (DR53) = HLA-DR DRB4*0101 (DR53) (Homo sapiens, UniProt P01903+P13762, G164S)
HLA-DR DRB5*0101 (DR51) = HLA-DR DRB5*0101 (DR51) (Homo sapiens, UniProt P01903+Q30154)
HLA-DR DRB1*1302 (DR13) = HLA-DR DRB1*1302 (DR13) (Homo sapiens, UniProt P01903+P01911, A100E/A169T/K41T/L162R/M171V/P40S/Q125H/Q178H/Q39Y/Q99D/R42S/S66N/T262R/V115G/W38E/Y61H)
Sequence of HLA-DR DRB1*1302 (DR13) (P01903 26-254 limits assumed, other chains not shown): as above

HLA-DR DRB1*0301 (DR3) = HLA-DR DRB1*0301 (DR3) (Homo sapiens, UniProt P01903+P01911, A100K/A102G/A103R/A169T/F55Y/I96L/K41T/L162R/M171V/P40S/Q125H/Q178H/Q39Y/R42S/S66N/T106N/T262R/W38E/Y61H)
Sequence of HLA-DR DRB1*0301 (DR3) (P01903 26-254 limits assumed, other chains not shown): as above

HLA-DR DRB1*1501 (DR15) = HLA-DR DRB1*1501 (DR15) (Homo sapiens, UniProt P01903+P01911)

Compound | IC50 (HLA-DR DRB1*0101 (DR1); DRB1 *0101) [nM] | IC50 (HLA-DR DRB1*0401 (DR4)) [nM] | IC50 (HLA-DR DRB1*0701 (DR7); DRB1 *0701) [nM] | IC50 (HLA-DR DRB1*0901 (DR9)) [nM] | IC50 (HLA-DR DRB1*1101 (DR11); DRB1 *1101) [nM] | IC50 (HLA-DR DRB3*0101 (DR52)) [nM] | IC50 (HLA-DR DRB4*0101 (DR53); DRB4 *0101) [nM] | IC50 (HLA-DR DRB5*0101 (DR51); DRB5 *0101) [nM] | IC50 (HLA-DR DRB1*1302 (DR13); DRBI *1302) [nM] | IC50 (HLA-DR DRB1*0301 (DR3)) [nM] | IC50 (HLA-DR DRB1*1501 (DR15); DRBI *1501) [nM] | IC50 (HLA-DR DRB1*0101 (DR1)) [nM] | IC50 (HLA-DR DRB1*0701 (DR7)) [nM] | IC50 (HLA-DR DRB1*1101 (DR11)) [nM] | IC50 (HLA-DR DRB1*1302 (DR13)) [nM] | IC50 (HLA-DR DRB1*1501 (DR15)) [nM] | IC50 (HLA-DR DRB4*0101 (DR53)) [nM] | IC50 (HLA-DR DRB5*0101 (DR51)) [nM]
CC[C@H](C)[C@H](NC(=O)[C@H](CC(N)=O)NC(=O)[C@H](CCC(=O)O)NC(=O)[C@H](C)NC(=O)[C@H](CCCCN)NC(=O)[C@H](CC(C)C)NC(=O)[C@H](CCC(=O)O)NC(=O)[C@H](CC(=O)O)NC(=O)[C@@H](N)CC(C)C)C(=O)N[C@@H](CCCCN)C(=O)N[C@@H](CCCCN)C(=O)N[C@@H](Cc1ccccc1)C(=O)N[C@@H](CC(C)C)C(=O)N[C@@H](Cc1ccc(O)cc1)C(=O)N[C@@H](CC(N)=O)C(=O)O | 1140 | 4840 | 7470 | 12800 | 324 | 548 | 788 | 150 |  |  |  |  |  |  |  |  |  | 
CC[C@H](C)[C@H](NC(=O)[C@H](Cc1c[nH]cn1)NC(=O)[C@H](CCSC)NC(=O)[C@H](CCCCN)NC(=O)[C@@H](NC(=O)[C@H](CCCCN)NC(=O)[C@H](CCC(N)=O)NC(=O)[C@@H](NC(=O)[C@H](CO)NC(=O)[C@H](Cc1ccccc1)NC(=O)[C@H](CC(N)=O)NC(=O)CNC(=O)[C@@H](N)[C@@H](C)O)[C@@H](C)O)C(C)C)C(=O)N[C@@H](Cc1c[nH]cn1)C(=O)N[C@@H](CO)C(=O)O | 11200 |  | 9410 | 1450 | 11900 | > 11800 | 508 | 1930 | 6190 |  |  |  |  |  |  |  |  | 
CSCC[C@H](NC(=O)[C@H](CC(=O)O)NC(=O)[C@H](Cc1ccc(O)cc1)NC(=O)[C@H](CC(C)C)NC(=O)[C@@H]1CCCN1C(=O)[C@H](Cc1c[nH]cn1)NC(=O)[C@@H]1CCCN1C(=O)[C@H](Cc1ccccc1)NC(=O)[C@H](CO)NC(=O)[C@H](Cc1c[nH]cn1)NC(=O)[C@H](CO)NC(=O)[C@@H](NC(=O)[C@H](CCC(N)=O)NC(=O)[C@H](Cc1ccccc1)NC(=O)[C@@H](N)C(C)C)C(C)C)C(=O)O | 16 | 25 | 51 | 17 |  | 23400 | > 12500 |  | 83 | > 75000 | 2400 |  |  |  |  |  |  | 
GAPLGGALRALAHGV |  | 15000 |  |  |  | > 51100 |  |  |  | > 486000 |  | 68 | 1420 | 83 | 340 | 2070 | 4890 | 5400
CC[C@H](C)[C@H](NC(=O)CNC(=O)[C@H](Cc1ccc(O)cc1)NC(=O)[C@H](CC(C)C)NC(=O)[C@H](CO)NC(=O)[C@H](CC(C)C)NC(=O)[C@H](CC(C)C)NC(=O)[C@H](CO)NC(=O)[C@H](CC(C)C)NC(=O)[C@H](CCC(=O)O)NC(=O)[C@H](CO)NC(=O)[C@@H](N)CC(C)C)C(=O)N[C@@H](Cc1c[nH]cn1)C(=O)N[C@@H](CCCCN)C(=O)N[C@@H](CCC(N)=O)C(=O)O | 482 | 1550 | 20900 | 1450 | 1660 | > 13000 | 79 | 7.3 |  | > 81800 | 45 |  |  |  |  |  |  | 
QKGRGYRGQHQAHSLERVCH |  | 88 |  |  | 30200 | > 500000 | 18000 | 9760 |  | > 47400 | > 9100 |  |  |  |  |  |  | 
RNFYVINRLTGYLRN | 1.7 | 219 | 527 | 7600 | 55 | 689 |  | 5.6 | 9.4 | 2200 | 18 |  |  |  |  |  |  | 
CC[C@H](C)[C@H](NC(=O)[C@H](Cc1c[nH]c2ccccc12)NC(=O)[C@@H](NC(=O)[C@@H](N)C(C)C)[C@@H](C)O)C(=O)NCC(=O)N[C@@H](C)C(=O)N[C@@H](C)C(=O)N1CCC[C@H]1C(=O)N[C@@H](CC(C)C)C(=O)N[C@H](C(=O)N[C@@H](CC(C)C)C(=O)N[C@@H](CO)C(=O)N[C@@H](CCCNC(=N)N)C(=O)N[C@H](C(=O)N[C@H](C(=O)O)C(C)C)[C@@H](C)CC)[C@@H](C)CC | 8.1 | 8000 | 195 | 82 | 1780 | > 10700 | 88 |  | 2340 | > 81800 |  |  |  |  |  |  |  | 
CSCC[C@H](NC(=O)[C@@H]1CCCN1C(=O)[C@H](CC(=O)O)NC(=O)[C@@H](N)Cc1ccc(O)cc1)C(=O)N[C@@H](Cc1ccccc1)C(=O)N[C@@H](CCCCN)C(=O)N[C@@H](Cc1ccc(O)cc1)C(=O)N[C@@H](Cc1c[nH]cn1)C(=O)N[C@@H](CC(C)C)C(=O)N[C@H](C(=O)N[C@H](C(=O)N[C@@H](C)C(=O)N[C@@H](CCC(N)=O)C(=O)N[C@H](C(=O)N[C@@H](CCCNC(=N)N)C(=O)O)C(C)C)C(C)C)[C@@H](C)O | 9 | 19 | 158 |  | 252 | 8140 | 553 | 62 | 1010 | > 75000 | 1350 |  |  |  |  |  |  | 
CSCC[C@H](NC(=O)[C@@H](N)Cc1c[nH]c2ccccc12)C(=O)N[C@@H](Cc1ccc(O)cc1)C(=O)N[C@@H](Cc1ccc(O)cc1)C(=O)N[C@@H](Cc1c[nH]cn1)C(=O)NCC(=O)N[C@@H](CCC(N)=O)C(=O)N[C@@H](CCCNC(=N)N)C(=O)N[C@@H](Cc1c[nH]cn1)C(=O)N[C@@H](CO)C(=O)N[C@@H](CC(=O)O)C(=O)N[C@@H](CCC(=O)O)C(=O)N[C@@H](Cc1c[nH]cn1)C(=O)N[C@@H](Cc1c[nH]cn1)C(=O)N[C@@H](Cc1c[nH]cn1)C(=O)O | ≥ 50000 |  | > 250000 |  | > 10000 | > 7690 |  | > 5000 |  | > 900000 |  |  |  |  |  |  |  | 
C[C@@H](O)[C@H](NC(=O)[C@H](CCCCN)NC(=O)[C@H](CCC(=O)O)NC(=O)[C@H](CCC(=O)O)NC(=O)CNC(=O)[C@H](Cc1ccccc1)NC(=O)[C@H](CCCNC(=N)N)NC(=O)[C@H](Cc1ccccc1)NC(=O)[C@H](CO)NC(=O)[C@H](CCC(=O)O)NC(=O)[C@H](CCC(=O)O)NC(=O)[C@@H]1CCCN1C(=O)[C@@H]1CCCN1)C(=O)N[C@H](C(=O)N1CCC[C@H]1C(=O)N[C@@H](CO)C(=O)O)[C@@H](C)O | > 2500 |  | > 12500 |  | > 10000 | > 14300 |  | > 2860 |  | > 900000 |  |  |  |  |  |  |  | 
CC(C)C[C@H](NC(=O)CNC(=O)[C@H](CC(N)=O)NC(=O)[C@H](Cc1ccc(O)cc1)NC(=O)[C@@H](NC(=O)[C@H](CC(=O)O)NC(=O)[C@@H](N)CC(C)C)C(C)C)C(=O)N[C@@H](CC(C)C)C(=O)N1CCC[C@H]1C(=O)N1CCC[C@H]1C(=O)N[C@@H](Cc1ccc(O)cc1)C(=O)N[C@@H](C)C(=O)N[C@@H](CO)C(=O)N[C@@H](CS)C(=O)N[C@@H](Cc1c[nH]cn1)C(=O)O | 15 | 348 | > 83300 | 31300 |  | > 15000 | > 10900 | 25800 | > 35000 |  | 3030 |  |  |  |  |  |  | 
AATYNFAVLKLMGRGTKF |  |  |  |  | 17 | 70000 | 1220 | 18 |  | > 52900 |  |  |  |  |  |  |  | 
CC(C)C[C@H](NC(=O)CNC(=O)[C@H](CC(N)=O)NC(=O)[C@H](Cc1ccc(O)cc1)NC(=O)[C@@H](NC(=O)[C@H](CC(=O)O)NC(=O)[C@H](CC(C)C)NC(=O)[C@H](C)N)C(C)C)C(=O)N[C@@H](CC(C)C)C(=O)N1CCC[C@H]1C(=O)N1CCC[C@H]1C(=O)N[C@@H](Cc1ccc(O)cc1)C(=O)N[C@@H](C)C(=O)N[C@@H](CO)C(=O)N[C@@H](CS)C(=O)O | 18 | 485 | > 83300 | 86600 |  | > 15000 | > 10100 | 115000 | > 35000 |  | 1090 |  |  |  |  |  |  | 
LLYTFRKDMDKVETF | > 18000 | 10600 | 53400 | > 59500 | 7900 | 941 |  |  | > 14500 | 23900 | 886 |  |  |  |  |  |  | 
